Results taken from ChEMBL document CHEMBL1641504, “Characterization and anions inhibition studies of an α-carbonic anhydrase from the teleost fish Dicentrarchus labrax” (Bioorg Med Chem, 2011).

Columns and labels:
Carbonic anhydrase 1 = Carbonic anhydrase 1 (Homo sapiens, UniProt P00915)
Description: Inhibition of human carbonic anhydrase 1 by Lineweaver-Burk curves

Carbonic anhydrase 4 = Carbonic anhydrase 4 (Homo sapiens, UniProt P22748)
Description: Inhibition of human carbonic anhydrase 4 by Lineweaver-Burk curves

[1] = molecular target: Carbonic anhydrase 5A, mitochondrial (Homo sapiens, UniProt P35218)
Description: Inhibition of human carbonic anhydrase 5 by Lineweaver-Burk curves

Carbonic anhydrase 9 = Carbonic anhydrase 9 (Homo sapiens, UniProt Q16790)
Description: Inhibition of human carbonic anhydrase 9 by Lineweaver-Burk curves

Carbonic anhydrase 2 = Carbonic anhydrase 2 (Homo sapiens, UniProt P00918)

Carbonic anhydrase 5A, mitochondrial, sequence (P35218 whole entry): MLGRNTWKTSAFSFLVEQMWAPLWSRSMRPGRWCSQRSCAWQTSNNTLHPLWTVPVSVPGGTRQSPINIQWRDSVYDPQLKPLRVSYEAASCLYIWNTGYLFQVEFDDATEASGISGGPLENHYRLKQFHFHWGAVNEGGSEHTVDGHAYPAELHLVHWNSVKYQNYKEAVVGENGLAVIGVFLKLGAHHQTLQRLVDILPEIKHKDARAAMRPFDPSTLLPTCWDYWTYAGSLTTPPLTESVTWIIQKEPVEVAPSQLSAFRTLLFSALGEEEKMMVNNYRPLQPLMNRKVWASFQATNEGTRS
Carbonic anhydrase 1, sequence (P00915 whole entry): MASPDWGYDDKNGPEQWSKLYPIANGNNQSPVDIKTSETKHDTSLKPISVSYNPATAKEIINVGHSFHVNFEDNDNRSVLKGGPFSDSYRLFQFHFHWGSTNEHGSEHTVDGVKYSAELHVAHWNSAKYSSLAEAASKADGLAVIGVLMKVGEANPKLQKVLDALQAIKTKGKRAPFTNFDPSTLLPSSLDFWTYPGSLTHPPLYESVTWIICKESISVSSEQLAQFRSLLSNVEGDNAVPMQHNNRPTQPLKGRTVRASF
Carbonic anhydrase 4, sequence (P22748 whole entry): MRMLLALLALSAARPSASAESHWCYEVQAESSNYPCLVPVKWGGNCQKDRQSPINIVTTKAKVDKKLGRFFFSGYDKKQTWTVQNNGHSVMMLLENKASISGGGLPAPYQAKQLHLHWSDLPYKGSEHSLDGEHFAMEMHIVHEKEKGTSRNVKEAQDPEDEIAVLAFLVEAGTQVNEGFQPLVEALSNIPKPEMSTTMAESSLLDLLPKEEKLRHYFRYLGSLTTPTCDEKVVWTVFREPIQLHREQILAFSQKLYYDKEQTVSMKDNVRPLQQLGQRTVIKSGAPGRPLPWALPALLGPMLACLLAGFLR

| Structure (SMILES) | Ki (Carbonic anhydrase 1) [mM] | Ki (Carbonic anhydrase 4) [mM] | Ki [1] [mM] | Ki (Carbonic anhydrase 9) [mM] | Ki (Carbonic anhydrase 2) [mM] |
| --- | --- | --- | --- | --- | --- |
| [I-].[K+] [POTASSIUM IODIDE] | 0.3 | 0.08 | 25 | 7 |  |
| [F-].[K+] [POTASSIUM FLUORIDE] |  | 0.07 | 241 | 48 |  |
| [Br-].[K+] [POTASSIUM BROMIDE] | 4 | 0.09 | 50 | 16 |  |
| O=[N+]([O-])[O-].[K+] [POTASSIUM NITRATE] | 7 | 58.7 | 16 | 46 |  |
| O=NO [SODIUM NITRITE] |  |  | 16 |  |  |
| O=S(=O)([O-])[O-].[Na+].[Na+] [SODIUM SULFATE ANHYDROUS] |  | 9 | 680 |  |  |
| [Cl-].[K+] [POTASSIUM CHLORIDE] | 6 | 0.09 | 156 | 33 | > 200 |
| N#C[S-].[Na+] [THIOCYANATE SODIUM] |  | 39 | 0.74 | 0.13 |  |
| [N-]=[N+]=[N-] [SODIUM AZIDE] |  |  | 0.3 | 0.005 |  |
